Measurements taken from the NIST ThermoML archive (doi:10.1016/j.jct.2005.08.005).

Columns and labels:
[1] = refractive index (other wavelength) (dimensionless); conditions: 101.3 kPa, Liquid, Wavelength=632.8 nm, Method described in references 3 and 4 of the article
[2] = refractive index (other wavelength) (dimensionless); xn = mol fraction of the nth substance listed; conditions: 101.3 kPa, Liquid, Wavelength=632.8 nm, Method described in references 3 and 4 of the article, x2 = 0

N#Cc1ccccc1 [benzonitrile]
[1]
Conditions | refractive index
294.62 K | 1.5246
296.97 K | 1.5235
299.08 K | 1.5224
301.39 K | 1.5213
303.42 K | 1.5203
305.92 K | 1.5191

CCCCCCCCCCCCCCCC [hexadecane]
[1]
Conditions | refractive index
294.85 K | 1.4324
295.86 K | 1.432
296.96 K | 1.4315
297.9 K | 1.4312
299.71 K | 1.4304
301.21 K | 1.4297
302.84 K | 1.4291
304.26 K | 1.4285

CCCCCCCCCCCCCCCC [hexadecane] + N#Cc1ccccc1
[2]
Conditions | refractive index
294.85 K | 1.4324
295.86 K | 1.432
296.96 K | 1.4315
297.9 K | 1.4312
299.71 K | 1.4304
301.21 K | 1.4297
302.84 K | 1.4291
304.26 K | 1.4285
